Data reported in US10806726B2, “Methods of using indazole-3-carb oxamides and their use as Wnt/B-catenin signaling pathway inhibitors” (Samumed, LLC, priority 2016, dated 2020).

Assays:
KC/GRO in plasma = assay: Rat Tendinopathy Model (1), plasma biomarker KC/GRO; assay type: in vivo
Experimental: (§1) Fifty (50 μl) of Collagenase Type IA (10 mg/ml in PBS, pH 7.4, approximately 469 units/mg) (Catalog # C5138, Sigma, St. Louis, Mo.) was injected into the Achilles tendon of both ankles near the osteotendinous junction of male Sprague Dawley CD® IGS rats (CRL, Inc.), using insulin syringes with 28.5 G needle.
[…] […] All rats were periodically observed for any pain, illnesses or abnormalities. At various time points, blood was collected for plasma in lithium heparin coated tubes by saphenous vein bleeding. For histology, rats were euthanized using isoflurane, tendons were isolated (n=6 tendons/group), fixed in 10% buffered formalin (Catalog # SF93-4, Fisher, Pittsburgh Pa.) and H & E histology staining was performed at a secondary site (Pacific Pathology, San Diego, Calif.). For biochemical analysis, tendons were isolated (n=4 tendons/group), flash frozen in liquid nitrogen and then stored at −80° C. for subsequent biochemical analysis (not reported).
Following manufacturer's instructions, KC/GRO plasma levels were determined using the KC/GRO Immunoassay kit (Catalog#900-K57, Peprotech, Rocky Hill, N.J.). Briefly, 96-well plates were coated with the anti-rat KC/GRO capture antibody overnight and washed to remove excess antibody. Plasma samples were incubated in the coated plates for 2 hours at room temperature. Following washes to remove unbound proteins, biotinylated anti-rat KC/GRO detection antibody was added and incubated for 30 mins at room temperature. Following washes to remove unbound excess antibody, avidin-HRP was added and incubated for 30 mins at room temperature. Following washes to remove unbound Avidin-HRP, the ABTS substrate was added and the plates were read on the Cytation 3 plate reader (Biotek Inc., Winooski, Vt.) at an absorbance of 525 nm with correction at 450 nm. All samples were processed in triplicate.
In this study, a total of 64 sections were scored for Group 1 (sham injection group) and approximately 96 sections each for Group 2 (Collagenase-Vehicle), Group 3 (Collagenase-compound 175 with BA preservative) group and Group 4 (Collagenase-compound 175 without preservative). To determine statistical significance between groups, student's t-test was performed with p<0.05 considered as significant for histology scoring and biomarker assay.

[1] = system: collagenase-induced tendonitis of the Achilles tendon in Sprague Dawley rats; assay: Rat Tendinopathy Model (2), collagenase-induced, tendon histology scoring; assay type: in vivo; conditions: for tendon histology score: topical once daily 21 days, total score of 20
Experimental: as §1
Rats were divided into 6 groups, with 6 animals per group except 8 animals in Group 2: Group 1 (sham injection), Group 2 (Collagenase-Vehicle with 0.5% Phx), Group 3 (Collagenase-compound 175 3 mg/mL with 0.5% BA), Group 4 (Collagenase-compound 175 10 mg/mL with 0.5% BA), Group 5 (Collagenase-compound 175 3 mg/mL with 0.5% Phx) and Group 6 (Collagenase-compound 175 10 mg/mL with 0.5% Phx). […] All rats were periodically observed for any pain, illnesses or abnormalities. At various time points, blood was collected for plasma in lithium heparin coated tubes by saphenous vein bleeding. For histology, rats were euthanized using isoflurane, tendons were isolated (n=8 tendons/group), fixed in 10% buffered formalin (Catalog # SF93-4, Fisher, Pittsburgh, Pa.) and H & E histology staining was performed at a secondary site (Pacific Pathology, San Diego, Calif.). For biochemical analysis, tendons were isolated (n=4 tendons/group), flash frozen in liquid nitrogen and then stored at −80° C. for subsequent biochemical analysis (not reported). Additionally, one (1) day after collagenase injection, 4 tendons were collected from Group 2 (vehicle) to observe the induction of inflammation (not reported).
There is biological variability in response to collagenase when injected directly into the tendons. […] Therefore, the entire tendon was isolated and placed in a tissue cassette and embedded in paraffin. Five (5) μm sections were generated with an average of 3 sections being fixed on one slide with a minimum of eight (8) slides per tendon and subjected to Hematoxylin & Eosin (H&E) staining. Slides were viewed under an upright light microscope (EVOS AMEX-1200) at a 10× magnification and scored blinded using a 1-4 scoring system of severity: 1-representing severe damage and 4—representing normal tendon, for Linearity of the fiber structure, Shape of the tendon cells, Density of the tendon cells, Inflammation, and Hemorrhage for a total score of twenty (20) using a modification of that described previously (Urdzikova et al., 2014—see Table 3). After the analysis was completed, the scorer was unblinded and scores for each criterion was annotated, totaled and total scores from each section were averaged together to generate a final score for each rat followed by averaging of scores for a given treatment group.
For tendon scoring, each section was analyzed following a 1-4 point scoring system as previously described (Urdzikova et al., 2014) with the exclusion of one variable, Thickness of the epitenon, due to difficulty in discerning the epitenon layer in the histology sections. In this study, a total of 94 sections were scored for Group 1 (sham injection, control group) and between 92-116 sections for Group 2 (Collagenase-Vehicle with 0.5% Phx); Group 3 (Collagenase-compound 175 3 mg/mL with 0.5% BA), Group 4 (Collagenase-compound 175 10 mg/mL with 0.5% BA), Group 5 (Collagenase-compound 175 3 mg/mL with 0.5% Phx) and Group 6 (Collagenase-compound 175 10 mg/mL with 0.5% Phx).

COc1ccc(NC(=O)c2n[nH]c3ccc(-c4cncc(CN5CCCCC5)c4)cc23)cn1 [compound 175, N-(6-Methoxypyridin-3-yl)-5-(5-(piperidin-1-ylmethyl)pyridin-3-yl)-1H-indazole-3-carboxamide]
plasma KC/GRO vs vehicle (KC/GRO in plasma; 10 mg/mL with or without BA preservative): significantly decreased the levels of KC/GRO in plasma | Plasma KC/GRO Concentration (KC/GRO in plasma; Day 0, Group 3, 10 mg/mL with 0.5% BA): 332 ± 51.3 pg/mL | Plasma KC/GRO Concentration (KC/GRO in plasma; Day 0, Group 4, 10 mg/mL without BA, with 0.5% Tween 80): 530 ± 31.4 pg/mL | Plasma KC/GRO Concentration (KC/GRO in plasma; Day 1, Group 3, 10 mg/mL with 0.5% BA): 521 ± 23.9 pg/mL | Plasma KC/GRO Concentration (KC/GRO in plasma; Day 1, Group 4, 10 mg/mL without BA, with 0.5% Tween 80): 637 ± 120 pg/mL | Plasma KC/GRO Concentration (KC/GRO in plasma; Day 3, Group 3, 10 mg/mL with 0.5% BA): 813 ± 61.4 pg/mL | Plasma KC/GRO Concentration (KC/GRO in plasma; Day 3, Group 4, 10 mg/mL without BA, with 0.5% Tween 80): 541 ± 58.9 pg/mL | Plasma KC/GRO Concentration (KC/GRO in plasma; Day 5, Group 3, 10 mg/mL with 0.5% BA): 480 ± 48.7 pg/mL | Plasma KC/GRO Concentration (KC/GRO in plasma; Day 5, Group 4, 10 mg/mL without BA, with 0.5% Tween 80): 410 ± 86.0 pg/mL | Plasma KC/GRO Concentration (KC/GRO in plasma; Day 7, Group 3, 10 mg/mL with 0.5% BA): 421 ± 57.2 pg/mL | Plasma KC/GRO Concentration (KC/GRO in plasma; Day 7, Group 4, 10 mg/mL without BA, with 0.5% Tween 80): 451 ± 76.6 pg/mL | Plasma KC/GRO Concentration (KC/GRO in plasma; Day 14, Group 3, 10 mg/mL with 0.5% BA): 400 ± 10.3 pg/mL | Plasma KC/GRO Concentration (KC/GRO in plasma; Day 14, Group 4, 10 mg/mL without BA, with 0.5% Tween 80): 424 ± 76.2 pg/mL | Plasma KC/GRO Concentration (KC/GRO in plasma; Day 21, Group 3, 10 mg/mL with 0.5% BA): 408 ± 83.3 pg/mL | Plasma KC/GRO Concentration (KC/GRO in plasma; Day 21, Group 4, 10 mg/mL without BA, with 0.5% Tween 80): 347 ± 111 pg/mL | plasma KC/GRO levels, range (KC/GRO in plasma; Days 5-21, treated group with BA): 400 to 480 pg/mL | plasma KC/GRO levels, range (KC/GRO in plasma; Days 5-21, treated group without BA): 347 to 451 pg/mL | blinded histology scoring of tendon injury and inflammation vs vehicle ([1]; 3 and 10 mg/mL, with either BA or Phx as preservative): significantly ameliorated collagenase-induced tendinopathy | tendon histology score ([1]; Group 3, 3 mg/mL with 0.5% BA): 14.5 (±1.15) | tendon histology score ([1]; Group 4, 10 mg/mL with 0.5% BA): 14.8 (±0.968) | tendon histology score ([1]; Group 5, 3 mg/mL with 0.5% Phx): 15.1 (±0.506) | tendon histology score ([1]; Group 6, 10 mg/mL with 0.5% Phx): 13.2 (±0.855)
